# Patent US20140194500A1 (Kookmin University Industry Academic Cooperation Foundation, priority 2013, published 2014)
# Where two headings read alike, the source gives them in different places.
# Key:
# [1] = target: T1, SARS coronavirus helicase nsP13 (Severe acute respiratory syndrome coronavirus, UniProt P0C6X7); experiment: biochemical; conditions: for inhibition at 10 µM: read-out: inhibition of the ATPase activity of nsP13
# MCF10A cells [2] = experiment: Cytotoxicity: growth of normal breast epithelial MCF10A cells; conditions: 2 μM, counted every 24h for 3 days
# [3] = target: T1, SARS coronavirus helicase nsP13; type: biochemical
# HCV viral helicase, NS3h = HCV viral helicase, NS3h (Hepatitis C virus genotype 1a, UniProt P27958); type: biochemical
# HCV NS3h = HCV NS3h (Hepatitis C virus genotype 1a, UniProt P27958); type: biochemical
# MCF10A cells [4] = conditions: human
# HCV viral helicase, NS3h, sequence (P27958 1193-1657): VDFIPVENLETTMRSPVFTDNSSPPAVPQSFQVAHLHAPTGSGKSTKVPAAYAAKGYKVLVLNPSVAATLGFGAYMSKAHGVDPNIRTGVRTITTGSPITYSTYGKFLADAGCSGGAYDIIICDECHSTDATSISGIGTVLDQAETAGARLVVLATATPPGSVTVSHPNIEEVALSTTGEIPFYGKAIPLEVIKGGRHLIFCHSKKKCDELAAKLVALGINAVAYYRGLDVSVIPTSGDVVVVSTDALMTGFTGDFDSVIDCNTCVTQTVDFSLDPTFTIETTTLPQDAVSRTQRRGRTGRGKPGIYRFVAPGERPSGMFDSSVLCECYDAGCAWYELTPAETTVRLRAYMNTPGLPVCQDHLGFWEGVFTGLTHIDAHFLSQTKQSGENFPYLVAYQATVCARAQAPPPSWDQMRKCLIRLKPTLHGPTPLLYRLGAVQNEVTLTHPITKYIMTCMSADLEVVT
# HCV NS3h, sequence (P27958 1193-1657): as above
molecule,measurement,setting,value
"O=c1cc(-c2ccc(O)c(-c3c(O)cc(O)c4c(=O)cc(-c5ccc(O)cc5)oc34)c2)oc2cc(O)cc(O)c12 [No. 18, amentoflavone]",inhibition at 10 µM,[1],~20%
"O=c1cc(-c2ccc(O)cc2)oc2cc(O)c(O)c(O)c12 [No. 8, scutellarein]",IC50,[1],860 ± 480 nM
same,inhibition at 10 µM,[1],> 90%
same,effect on the growth of MCF10A cells (viable cell number),MCF10A cells [2],did not affect the growth of MCF10A cells
"O=c1c(O)c(-c2cc(O)c(O)c(O)c2)oc2cc(O)cc(O)c12 [No. 6, myricetin]","inhibition of the dsDNA-unwinding activity of SARS helicase, nsP13",[3],not inhibition of helicase activity
same,inhibition of the DNA unwinding activity of HCV viral helicase,"HCV viral helicase, NS3h",did not suppress the helicase activity of HCV virus
same,suppression of the ATPase activity of the HCV viral helicase,HCV NS3h,did not seem to suppress the ATPase activity of HCV helicase protein
same,effect on the growth of MCF10A cells (viable cell number),MCF10A cells [4],did not affect the growth of MCF10A cells
"CC1(C)CC[C@]2(C)CC=C3[C@]4(C)CC[C@H]5C(C)(C)[C@@H](O)CC[C@]5(C)[C@H]4CC[C@@]3(C)[C@@H]2C1 [No. 58, taraxerol]",inhibition at 10 µM,[1],~20%
Diosmetin-7-O-Glc-Xyl [No. 35],inhibition of the ATPase activity of nsP13,[1]; 10 µM,around 20%
